This note sets out measurements from the supplement of paper PMC10307832.

Holding throughout (assay): relative viability (nuclei count vs DMSO), 5 days (fraction); higher = more cells survive
Compound in assay [1]: C=CCn1c(=O)c2cnc(Nc3ccc(N4CCN(C)CC4)cc3)nc2n1-c1cccc(C(C)(C)O)n1 [Adavosertib] + CC1(C)CCC(c2ccc(Cl)cc2)=C(CN2CCN(c3ccc(C(=O)NS(=O)(=O)c4ccc(N[C@H](CCN5CCOCC5)CSc5ccccc5)c(S(=O)(=O)C(F)(F)F)c4)cc3)CC2)C1 [Navitoclax] (partner 0.5 µM)
In short, it runs like this:
(§1)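 A single step with final 0.05% Triton X-100, 1% formaldehyde and 1 ug/ml Hoechst fixed the cells and stained nuclei 5 days after treatment. Lung cancer cell lines in 1536-well plates had been treated by pin tool the day after seeding with one drug alone or a fixed anchor-drug dose plus five library-drug doses (not always all listed) in √10 steps, and nuclei were counted on 4× images. Relative viability is the ratio of nuclei in treated wells to nuclei in vehicle wells, taken as the median of duplicate plates.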

Compound in assay [2]: C=CCn1c(=O)c2cnc(Nc3ccc(N4CCN(C)CC4)cc3)nc2n1-c1cccc(C(C)(C)O)n1 [Adavosertib] + CS(=O)(=O)N1CCN(Cc2cc3nc(-c4cccc5[nH]ncc45)nc(N4CCOCC4)c3s2)CC1 [Pictilisib] (partner 1 µM)
In short, it runs like this: as §1

Compound in assay [3]: C=CCn1c(=O)c2cnc(Nc3ccc(N4CCN(C)CC4)cc3)nc2n1-c1cccc(C(C)(C)O)n1 [Adavosertib] + O=C(CCCCCCC(=O)Nc1ccccc1)NO [Vorinostat] (partner 1 µM)
The gist of the method:
as §1

Compound in assay [4]: COc1nc(N)nc2c1ncn2[C@@H]1O[C@H](CO)[C@@H](O)[C@@H]1O [Nelarabine] + Cc1nc(NC(=O)N2CCC[C@H]2C(N)=O)sc1-c1ccnc(C(C)(C)C(F)(F)F)c1 [Alpelisib] (partner 2 µM)
The gist of the method: as §1

Consider EMC-BAC-2, for which the relative viability in assay [1] (first compound 0.01 µM) came out at 1.22; in assay [1] (first compound 0.03162 µM) it was 1.12; in assay [1] (first compound 0.1 µM), 1.2; in assay [1] (first compound 0.3162 µM) it was 1.19; in assay [2] (first compound 0.01 µM), 0.544; in assay [2] (first compound 0.03162 µM), 0.56. Moreover, the relative viability in assay [2] (first compound 0.1 µM) was 0.583; in assay [2] (first compound 0.3162 µM), 0.544; in assay [3] (first compound 0.03162 µM), 0.536; in assay [3] (first compound 0.1 µM) it was 0.431; in assay [3] (first compound 0.3162 µM), 0.396; in assay [4] (first compound 0.01 µM), 0.794. The relative viability was 0.585 in assay [4] (first compound 0.03162 µM), 0.73 in assay [4] (first compound 0.1 µM), 0.799 in assay [4] (first compound 0.3162 µM) and 0.815 in assay [4] (first compound 1 µM).
